Measurements: ChEMBL document CHEMBL1201862, “PubChem BioAssay data set” (2004)
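Protocol summary: plate cells (96-well), add compound at 5 concentrations, incubate 48 h, interpolate endpoints linearly. Abbreviation: GI50, concentration required for 50% inhibition of growth.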 Calls of active or inactive are those of the source. No stated cut-off is given here; in the data, active = GI50 up to about 1.1 µM and inactive = higher.

How the values were obtained:
Test in all cases: NCI anticancer screen, dose series, 48 h
786-0 = test system: 786-0
CCRF-CEM = test system: CCRF-CEM
SNB-75 = test system: SNB-75
MCF7 = test system: MCF7
MOLT-4 = test system: MOLT-4
NCI-H460 = test system: NCI-H460
NCI-H23 = test system: NCI-H23
UO-31 = test system: UO-31
HCT-116 = test system: HCT-116
DU-145 = test system: DU-145
MDA-MB-435 = test system: MDA-MB-435
SK-OV-3 = test system: SK-OV-3
HCC 2998 = test system: HCC 2998
A549 = test system: A549
UACC-257 = test system: UACC-257
SF-539 = test system: SF-539
HT-29 = test system: HT-29
OVCAR-4 = test system: OVCAR-4
CAKI-1 = test system: CAKI-1
NCI-H226 = test system: NCI-H226

SMILES | GI50 (786-0) | GI50 (CCRF-CEM) | GI50 (SNB-75) | GI50 (MCF7) | GI50 (MOLT-4) | GI50 (NCI-H460) | GI50 (NCI-H23) | GI50 (UO-31) | GI50 (HCT-116) | GI50 (DU-145) | GI50 (MDA-MB-435) | GI50 (SK-OV-3) | GI50 (HCC 2998) | GI50 (A549) | GI50 (UACC-257) | GI50 (SF-539) | GI50 (HT-29) | GI50 (OVCAR-4) | GI50 (CAKI-1) | GI50 (NCI-H226)
[N-]=[N+]=Nc1c(Cc2ccccc2)c(=O)oc2ccccc12 | 40.6 µM (inactive) | 12.7 µM (inactive) | 28.6 µM (inactive) | 32.6 µM (inactive) | 5.06 µM (inactive) | 18.1 µM (inactive) | 26.4 µM (inactive) | 36.1 µM (inactive) | > 10 µM (inactive) | 51.9 µM (inactive) | 22.3 µM (inactive) | 32.1 µM (inactive) | 26 µM (inactive) | 32.5 µM (inactive) | 45.8 µM (inactive) | > 10 µM (inactive) | 21.7 µM (inactive) | 32.4 µM (inactive) | 23.8 µM (inactive) | –
CC1C(c2ccc3c(c2)OCO3)c2cc3c(cc2OC1N1CCCC1)OCO3 (stereo unspecified) | 45.5 µM (inactive) | 26.4 µM (inactive) | 15.1 µM (inactive) | 33.1 µM (inactive) | 27.4 µM (inactive) | 34.4 µM (inactive) | 38.7 µM (inactive) | 17.2 µM (inactive) | 18 µM (inactive) | 34.1 µM (inactive) | 5.52 µM (inactive) | – | 17.8 µM (inactive) | 31.3 µM (inactive) | 34.5 µM (inactive) | 16.1 µM (inactive) | 31 µM (inactive) | – | 11.6 µM (inactive) | –
CCC(=O)N/S(=N/S(=O)(=O)c1ccccc1)C(Cl)(Cl)Cl (stereo unspecified) | > 100 µM (inactive) | > 100 µM (inactive) | > 100 µM (inactive) | > 100 µM (inactive) | > 100 µM (inactive) | > 100 µM (inactive) | > 100 µM (inactive) | > 100 µM (inactive) | > 100 µM (inactive) | > 100 µM (inactive) | > 100 µM (inactive) | > 100 µM (inactive) | > 100 µM (inactive) | > 100 µM (inactive) | > 100 µM (inactive) | > 100 µM (inactive) | > 100 µM (inactive) | > 100 µM (inactive) | – | > 100 µM (inactive)
CCOC(=O)C1=C(C)N(c2ccc(Cl)cc2)C2(O)C=CC(=O)C3C(=O)N(c4ccccc4)C(=O)C132 (stereo unspecified) | 1.53 µM (inactive) | 0.476 µM (active) | 1.77 µM (inactive) | 1.62 µM (inactive) | 1.6 µM (inactive) | 2.3 µM (inactive) | 1.93 µM (inactive) | 1.6 µM (inactive) | 1.44 µM (inactive) | 1.87 µM (inactive) | 2.23 µM (inactive) | 2.4 µM (inactive) | – | 2.83 µM (inactive) | 2.29 µM (inactive) | 2.27 µM (inactive) | 1.82 µM (inactive) | 1.54 µM (inactive) | 1.87 µM (inactive) | –
CCOC(=O)c1[nH]c(-c2[nH]c(-c3[nH]c(-c4[nH]c(C(=O)OCC)c(C)c4C(=O)OCC)c(C(=O)OCC)c3C)c(C)c2C(=O)OCC)c(C(=O)OCC)c1C | > 100 µM (inactive) | > 100 µM (inactive) | – | > 100 µM (inactive) | > 100 µM (inactive) | > 100 µM (inactive) | > 100 µM (inactive) | – | > 100 µM (inactive) | > 100 µM (inactive) | > 100 µM (inactive) | > 100 µM (inactive) | > 100 µM (inactive) | > 100 µM (inactive) | > 100 µM (inactive) | > 100 µM (inactive) | > 100 µM (inactive) | > 100 µM (inactive) | > 100 µM (inactive) | > 100 µM (inactive)
